Like-named read-outs stand apart in the source and are kept apart here. No end group written: not given here.
What was measured:
P. acne ATCC 6919 = assay: Antimicrobial assays II, NCCLS broth microdilution MIC; type: cell-based, Propionibacterium acnes; details: mean of three, in µg/mL
[1] = system: yeast (Saccharomyces cerevisiae); assay: Antimicrobial assay I, yeast assay in RPMI 1640; type: cell-based; details: RPMI 1640 media
P. aeruginosa H774 = type: cell-based, Pseudomonas aeruginosa; details: P. aeruginosa H744; nalidixic acid + peptide at ¼ MIC; 0.5 or less = synergy
How it was run: (§1)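 Efflux-mutant strains were tested with two-fold serial dilutions of chloramphenicol or nalidixic acid, alone and with peptide held at ¼ of its own MIC.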

P. aeruginosa H374 = type: cell-based, Pseudomonas aeruginosa; details: for MIC Cm-comb.: MIC of chloramphenicol with peptide at ¼ MIC; for MIC Nal-comb.: MIC of nalidixic acid with peptide at ¼ MIC; for FIC Index: 0.5 or less = synergy
How it was run: as §1

P. aeruginosa = type: cell-based, Pseudomonas aeruginosa; details: P. aeruginosa H744; MIC of nalidixic acid with peptide at ¼ MIC
How it was run: as §1

WI38 = details: MTT, 24 hours with peptide; normal fibroblast line
PC3 = assay: Anti-cancer assay, MTT, LD50; type: cell-based; details: 24 hours with peptide, prostate adenocarcinoma
Excerpt: (§2) Numbers are LD50 values (μg/mL).

SW480 = assay: Anti-cancer assay, MTT, LD50; type: cell-based; details: SW480 colon adenocarcinoma line, 24 hours with peptide
Excerpt: as §2

HeLaS3 = assay: Anti-cancer assay, MTT, LD50; type: cell-based; details: 24 hours with peptide, cervical carcinoma
Excerpt: as §2

H1299 = assay: Anti-cancer assay, MTT, LD50; type: cell-based; details: 24 hours with peptide, lung large cell carcinoma
Excerpt: as §2

MCF7 = assay: Anti-cancer assay, MTT, LD50; type: cell-based; details: MCF7 breast adenocarcinoma line, MTT, 24 hours with peptide
Excerpt: as §2

BMKC = assay: Anti-cancer assay, MTT, LD50; type: cell-based; details: BMKC cloned melanoma line, 24 hours with peptide
Excerpt: as §2

[2] = system: Staphylococcus aureus ATCC 6538; assay: Antimicrobial assay I, MIC by OD measurement; type: cell-based; details: 37° C. for 24 hours, absorbance 620 nm
[3] = system: Pseudomonas aeruginosa ATCC 9027; assay: Antimicrobial assay I, MIC by OD measurement; type: cell-based; details: 37° C. for 24 hours, absorbance 620 nm
S. pneumoniae C718 = assay: Antimicrobial assays II, NCCLS broth microdilution MIC; type: cell-based, Streptococcus pneumoniae; details: mean of three
in vitro = details: human, WI38 normal lung fibroblast cells, LD50 WI38, WI38 normal lung fibroblast line, MTT, 24 hours with peptide
E. coli UB1005 = type: cell-based, Escherichia coli; details: mean of three; 16 to 20 hours at 35° C.; in µg/mL
S. typhimurium 14028S = type: cell-based, Salmonella typhimurium; details: mean of three; 16 to 20 hours at 35° C.; in µg/mL
[4] = chloramphenicol + peptide at ¼ MIC
[5] = nalidixic acid + peptide at ¼ MIC, FIC=0.25+MIC comb/MIC alone

Substance: FALKALKKLKKALKKAL-NH2 [P153]
- P. acne MIC (P. acne ATCC 6919): 4
- yeast (MIC or MFC) [1]: 100 µg/mL
- FIC Index (P. aeruginosa H774): 1.25
- MIC Cm-comb. (P. aeruginosa H374): 8 µg/mL
- MIC Nal-comb. (P. aeruginosa H374): 5000 µg/mL
- FIC Index (P. aeruginosa H374; [4]): 0.75
- FIC Index (P. aeruginosa H374; [5]): 1.25
- MIC Nal-comb. (P. aeruginosa): 624 µg/mL
- WI38 LD50 (WI38): 130 µg/mL
- PC3 LD50 (PC3): 97 µg/mL
- LD50 SW480 (SW480): 61 µg/mL
- HeLaS3 LD50 (HeLaS3): 140 µg/mL
- H1299 LD50 (H1299): 50 µg/mL
- LD50 MCF7 (MCF7): 64 µg/mL
- LD50 BMKC (BMKC): 165 µg/mL
- staph6538 (MIC) [2]: 5 µg/mL
- paerug9027 (MIC) [3]: 25 µg/mL
- S. pneumoniae MIC (S. pneumoniae C718): 32 µg/mL
- CC50 at 24 h (in vitro): 130 µg/mL

Substance: MPKWKVFKKIEKVGRNIRNGIVKAGPAIAVLGEAKALG-NH2 [P12, reference compound]
- E. coli UB1005 MIC (E. coli UB1005): 1
- S. typhimurium 14028S MIC (S. typhimurium 14028S): 4
- yeast (MIC or MFC) [1]: > (> indicates greater than 200 μg/mL)
- FIC Index (P. aeruginosa H774): 0.75
- MIC Cm-comb. (P. aeruginosa H374): 16 µg/mL
- MIC Nal-comb. (P. aeruginosa H374): 2500 µg/mL
- FIC Index (P. aeruginosa H374; [4]): 1.25
- FIC Index (P. aeruginosa H374; [5]): 0.75
- MIC Nal-comb. (P. aeruginosa): 312 µg/mL
- WI38 LD50 (WI38): 950 µg/mL
- PC3 LD50 (PC3): 630 µg/mL
- LD50 SW480 (SW480): > (> indicates greater than 1000)
- HeLaS3 LD50 (HeLaS3): > (> indicates greater than 1000)
- H1299 LD50 (H1299): 720 µg/mL
- LD50 MCF7 (MCF7): 540 µg/mL
- LD50 BMKC (BMKC): > (> indicates greater than 1000)
- staph6538 (MIC) [2]: > (> indicates greater than 200 μg/mL)
- paerug9027 (MIC) [3]: 100 µg/mL
- CC50 at 24 h (in vitro): 950 µg/mL

Substance: FAVGLRAIKRALKKLRRGVRKVAKDL-NH2 [P157, reference compound]
- E. coli UB1005 MIC (E. coli UB1005): 8
- S. typhimurium 14028S MIC (S. typhimurium 14028S): 8
- P. acne MIC (P. acne ATCC 6919): 4
- yeast (MIC or MFC) [1]: > (> indicates greater than 200 μg/mL)
- FIC Index (P. aeruginosa H774): 1.25
- MIC Cm-comb. (P. aeruginosa H374): 8 µg/mL
- MIC Nal-comb. (P. aeruginosa H374): 2500 µg/mL
- FIC Index (P. aeruginosa H374; [4]): 0.75
- FIC Index (P. aeruginosa H374; [5]): 0.75
- MIC Nal-comb. (P. aeruginosa): 624 µg/mL
- WI38 LD50 (WI38): 500 µg/mL
- PC3 LD50 (PC3): 375 µg/mL
- LD50 SW480 (SW480): 530 µg/mL
- HeLaS3 LD50 (HeLaS3): > (> indicates greater than 1000)
- H1299 LD50 (H1299): 315 µg/mL
- LD50 MCF7 (MCF7): 240 µg/mL
- LD50 BMKC (BMKC): 600 µg/mL
- staph6538 (MIC) [2]: 200 µg/mL
- paerug9027 (MIC) [3]: > (> indicates greater than 200 μg/mL)
- S. pneumoniae MIC (S. pneumoniae C718): 128 µg/mL
- CC50 at 24 h (in vitro): 500 µg/mL

Reference: US20050209157A1, “Short bioactive peptides and methods for their use” (priority 2001, published 2005)
